Calls of active or inactive are those of the source. For most assays here, no stated cut-off is given here; in the data, actives have a measured IC50 and inactives only a lower limit.
What was measured:
Bcl-2-related protein A1 [1] = target: T1, Bcl-2-related protein A1 (Mus musculus, UniProt Q07440); test: Bfl-1 binding inhibitors, SAR follow-up, biochemical, fluorescence polarization (AID 1070)
T1 sequence (Q07440 whole entry): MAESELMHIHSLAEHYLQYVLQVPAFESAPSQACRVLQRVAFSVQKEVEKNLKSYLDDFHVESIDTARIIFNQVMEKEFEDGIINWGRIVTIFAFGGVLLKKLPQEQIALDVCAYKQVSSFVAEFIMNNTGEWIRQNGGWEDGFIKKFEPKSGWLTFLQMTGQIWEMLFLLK

Bcl-2-related protein A1 [2] = target: T1, Bcl-2-related protein A1; test: small-molecule antagonists of Bfl-1/BH3 interaction – biochemical, TR-FRET, mouse Bfl-1, confirmation (AID 621);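 further: TR-FRET binding of GST-Bfl-1 to FITC-labelled Bid peptide via terbium antibody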
HEK293 = test: SAR analysis of compounds that are cytotoxic to HEK293 - Set 3. [Related pubchem assays (depositor defined):AID1575, AID1578, AID1848, AID1849, AID2001, AID2333, AID2334, AID2335, AID2337, AID2469]; type: functional, cell-based; conditions: Homo sapiens
[3] = target: Nucleotide-binding oligomerization domain-containing protein 2 (Homo sapiens, UniProt Q9HC29); test: inhibition of MDP-driven NOD2 NF-kB reporter – cell-based, set 3, SAR follow-up (AID 2799); type: functional
[4] = target: Nucleotide-binding oligomerization domain-containing protein 1 (Homo sapiens, UniProt Q9Y239); test: SAR analysis of compounds that inhibit NOD1 - Set 3. [Related pubchem assays (depositor defined):AID1566, AID1575, AID1578, AID1849, AID1852, AID2333, AID2335, AID2466]; type: functional
[5] = target: Glyceraldehyde-3-phosphate dehydrogenase (Homo sapiens, UniProt P04406)
Sequence of Glyceraldehyde-3-phosphate dehydrogenase (P04406 whole entry): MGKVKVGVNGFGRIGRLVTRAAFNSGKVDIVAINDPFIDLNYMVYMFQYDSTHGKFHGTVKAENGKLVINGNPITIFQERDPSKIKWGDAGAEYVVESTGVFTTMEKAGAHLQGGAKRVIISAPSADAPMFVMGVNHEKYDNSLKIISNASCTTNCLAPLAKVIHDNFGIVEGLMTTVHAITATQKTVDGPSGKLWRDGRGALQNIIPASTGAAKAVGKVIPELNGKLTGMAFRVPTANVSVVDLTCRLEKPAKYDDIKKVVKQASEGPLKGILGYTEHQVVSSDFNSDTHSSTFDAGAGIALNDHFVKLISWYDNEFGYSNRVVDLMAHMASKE

Tumor necrosis factor = Tumor necrosis factor (Homo sapiens, UniProt P01375); test: analog potency on TNFa NF-kB signaling – cell-based, set 3, SAR follow-up (AID 2801); type: functional
Sequence of Tumor necrosis factor (P01375 whole entry): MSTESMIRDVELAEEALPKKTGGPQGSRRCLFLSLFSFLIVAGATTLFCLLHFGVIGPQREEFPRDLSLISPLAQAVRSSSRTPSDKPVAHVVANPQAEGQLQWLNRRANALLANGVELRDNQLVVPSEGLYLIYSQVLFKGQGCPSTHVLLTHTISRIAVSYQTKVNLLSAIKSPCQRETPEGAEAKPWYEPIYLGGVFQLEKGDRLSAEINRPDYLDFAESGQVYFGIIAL

CAAX prenyl protease 2 = CAAX prenyl protease 2 (Saccharomyces cerevisiae S288c, UniProt Q03530); type: biochemical
Sequence of CAAX prenyl protease 2 (Q03530 whole entry): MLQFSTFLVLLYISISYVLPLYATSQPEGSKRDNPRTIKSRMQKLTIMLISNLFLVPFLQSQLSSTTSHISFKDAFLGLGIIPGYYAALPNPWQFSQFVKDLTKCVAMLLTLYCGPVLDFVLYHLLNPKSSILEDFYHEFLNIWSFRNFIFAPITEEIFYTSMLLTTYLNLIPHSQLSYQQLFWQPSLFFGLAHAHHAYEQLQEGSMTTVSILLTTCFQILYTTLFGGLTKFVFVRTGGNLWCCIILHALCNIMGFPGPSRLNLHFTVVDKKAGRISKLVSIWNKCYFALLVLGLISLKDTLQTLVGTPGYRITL

[6] = toxicity toward cultured mammalian cells – cell-based, plate reader, cherry-pick samples, cytotoxicity control, dose response (AID 504397); type: functional
SUMO-activating enzyme [7] = target: T2, SUMO-activating enzyme (Homo sapiens, UniProt Q9UBT2); test: blockers of SAE1/SAE2–UBC9 SUMO transfer – biochemical, HTRF, uHTS, primary screen (AID 2006); type: protein-complex assay
T2 sequence (Q9UBE0 whole entry): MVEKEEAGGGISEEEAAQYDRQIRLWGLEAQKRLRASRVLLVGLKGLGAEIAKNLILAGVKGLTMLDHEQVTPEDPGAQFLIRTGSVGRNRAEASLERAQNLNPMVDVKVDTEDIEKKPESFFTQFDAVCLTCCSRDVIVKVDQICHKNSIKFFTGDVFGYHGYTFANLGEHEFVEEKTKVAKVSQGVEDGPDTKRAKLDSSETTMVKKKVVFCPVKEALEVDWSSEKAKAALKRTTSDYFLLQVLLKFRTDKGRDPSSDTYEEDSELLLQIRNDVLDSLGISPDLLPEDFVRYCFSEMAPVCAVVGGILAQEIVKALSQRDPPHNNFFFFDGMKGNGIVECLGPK
T2 sequence (Q9UBT2 whole entry): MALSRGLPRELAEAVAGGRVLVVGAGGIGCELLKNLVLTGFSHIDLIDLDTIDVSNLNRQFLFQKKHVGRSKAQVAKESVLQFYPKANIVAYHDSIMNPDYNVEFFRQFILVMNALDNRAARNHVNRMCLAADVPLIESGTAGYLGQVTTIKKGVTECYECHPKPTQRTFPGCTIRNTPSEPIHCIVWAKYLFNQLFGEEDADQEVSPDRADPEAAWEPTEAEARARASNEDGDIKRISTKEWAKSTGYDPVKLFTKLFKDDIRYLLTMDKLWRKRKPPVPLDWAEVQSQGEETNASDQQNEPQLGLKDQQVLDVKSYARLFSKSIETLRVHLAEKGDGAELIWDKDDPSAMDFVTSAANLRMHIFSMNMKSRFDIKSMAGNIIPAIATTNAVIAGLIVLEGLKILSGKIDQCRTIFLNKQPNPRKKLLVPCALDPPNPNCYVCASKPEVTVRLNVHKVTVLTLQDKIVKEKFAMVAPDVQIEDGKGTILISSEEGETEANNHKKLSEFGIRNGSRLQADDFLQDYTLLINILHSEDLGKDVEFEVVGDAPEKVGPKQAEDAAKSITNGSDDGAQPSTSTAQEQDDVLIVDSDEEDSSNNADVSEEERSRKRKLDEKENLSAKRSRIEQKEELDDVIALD

[8] = target: T3, Voltage-gated N-type calcium channel alpha-1B subunit/Amyloid beta A4 precursor protein-binding family A member 1 (Homo sapiens, UniProt Q00975+Q02410); type: protein assay
T3 sequence (Q00975 whole entry): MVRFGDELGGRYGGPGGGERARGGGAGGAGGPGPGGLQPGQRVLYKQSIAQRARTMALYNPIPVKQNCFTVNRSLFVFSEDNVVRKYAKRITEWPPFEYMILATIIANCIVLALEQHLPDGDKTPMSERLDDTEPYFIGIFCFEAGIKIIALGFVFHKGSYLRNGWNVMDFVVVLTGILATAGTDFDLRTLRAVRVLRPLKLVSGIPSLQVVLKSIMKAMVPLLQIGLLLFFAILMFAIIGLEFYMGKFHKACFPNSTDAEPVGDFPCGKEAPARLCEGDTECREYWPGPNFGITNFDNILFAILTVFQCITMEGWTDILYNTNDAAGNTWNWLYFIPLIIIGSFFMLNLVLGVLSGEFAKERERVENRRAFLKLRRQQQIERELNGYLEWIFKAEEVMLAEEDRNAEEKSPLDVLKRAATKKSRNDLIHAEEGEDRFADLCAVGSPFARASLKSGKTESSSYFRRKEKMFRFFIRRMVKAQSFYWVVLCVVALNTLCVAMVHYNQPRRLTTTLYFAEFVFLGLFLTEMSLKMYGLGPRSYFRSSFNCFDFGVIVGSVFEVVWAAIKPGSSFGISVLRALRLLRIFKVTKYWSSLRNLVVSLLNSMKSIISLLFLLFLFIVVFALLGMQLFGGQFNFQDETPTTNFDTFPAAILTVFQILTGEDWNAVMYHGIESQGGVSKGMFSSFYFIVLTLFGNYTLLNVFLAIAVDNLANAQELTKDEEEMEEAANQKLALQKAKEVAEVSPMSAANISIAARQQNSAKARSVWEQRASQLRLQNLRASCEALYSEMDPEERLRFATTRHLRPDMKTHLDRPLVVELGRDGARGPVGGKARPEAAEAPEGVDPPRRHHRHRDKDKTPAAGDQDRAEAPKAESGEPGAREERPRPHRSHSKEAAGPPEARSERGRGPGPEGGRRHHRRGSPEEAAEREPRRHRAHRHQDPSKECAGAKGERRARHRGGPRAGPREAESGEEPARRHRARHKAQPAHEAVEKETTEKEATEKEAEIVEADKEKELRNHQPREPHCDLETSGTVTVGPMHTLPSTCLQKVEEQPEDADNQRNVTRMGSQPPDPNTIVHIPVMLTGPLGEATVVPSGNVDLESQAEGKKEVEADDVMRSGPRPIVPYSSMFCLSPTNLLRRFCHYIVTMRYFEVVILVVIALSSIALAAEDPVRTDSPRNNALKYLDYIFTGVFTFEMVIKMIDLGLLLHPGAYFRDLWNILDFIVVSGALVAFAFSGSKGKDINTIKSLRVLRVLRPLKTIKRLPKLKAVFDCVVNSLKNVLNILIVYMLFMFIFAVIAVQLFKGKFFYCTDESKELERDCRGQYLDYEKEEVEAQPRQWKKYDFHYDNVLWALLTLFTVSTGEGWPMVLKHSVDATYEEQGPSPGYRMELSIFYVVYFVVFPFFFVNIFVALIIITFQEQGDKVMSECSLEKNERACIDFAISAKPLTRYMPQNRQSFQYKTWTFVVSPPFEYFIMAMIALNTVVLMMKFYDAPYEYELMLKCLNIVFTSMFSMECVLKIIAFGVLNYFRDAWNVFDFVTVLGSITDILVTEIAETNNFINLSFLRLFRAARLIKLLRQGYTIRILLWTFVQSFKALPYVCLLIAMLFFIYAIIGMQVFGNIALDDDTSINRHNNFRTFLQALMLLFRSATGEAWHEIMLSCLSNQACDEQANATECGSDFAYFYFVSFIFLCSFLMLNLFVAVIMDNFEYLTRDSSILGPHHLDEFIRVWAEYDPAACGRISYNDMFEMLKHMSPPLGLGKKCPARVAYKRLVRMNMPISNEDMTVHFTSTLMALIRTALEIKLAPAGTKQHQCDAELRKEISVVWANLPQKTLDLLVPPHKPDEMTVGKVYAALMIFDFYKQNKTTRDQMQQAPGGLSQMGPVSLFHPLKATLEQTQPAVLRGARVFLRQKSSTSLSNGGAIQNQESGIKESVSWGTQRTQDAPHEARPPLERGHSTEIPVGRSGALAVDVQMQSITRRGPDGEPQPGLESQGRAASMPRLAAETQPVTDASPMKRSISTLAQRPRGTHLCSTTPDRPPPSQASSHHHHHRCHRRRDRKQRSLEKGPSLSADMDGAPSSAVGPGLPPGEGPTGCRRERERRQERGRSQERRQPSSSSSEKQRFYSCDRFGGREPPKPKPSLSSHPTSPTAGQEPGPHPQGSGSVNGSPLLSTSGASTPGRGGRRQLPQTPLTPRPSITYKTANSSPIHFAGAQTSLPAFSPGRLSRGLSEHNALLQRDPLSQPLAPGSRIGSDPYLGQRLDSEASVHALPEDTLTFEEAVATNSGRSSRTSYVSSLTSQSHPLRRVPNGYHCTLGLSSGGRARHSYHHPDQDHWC
T3 sequence (Q02410 whole entry): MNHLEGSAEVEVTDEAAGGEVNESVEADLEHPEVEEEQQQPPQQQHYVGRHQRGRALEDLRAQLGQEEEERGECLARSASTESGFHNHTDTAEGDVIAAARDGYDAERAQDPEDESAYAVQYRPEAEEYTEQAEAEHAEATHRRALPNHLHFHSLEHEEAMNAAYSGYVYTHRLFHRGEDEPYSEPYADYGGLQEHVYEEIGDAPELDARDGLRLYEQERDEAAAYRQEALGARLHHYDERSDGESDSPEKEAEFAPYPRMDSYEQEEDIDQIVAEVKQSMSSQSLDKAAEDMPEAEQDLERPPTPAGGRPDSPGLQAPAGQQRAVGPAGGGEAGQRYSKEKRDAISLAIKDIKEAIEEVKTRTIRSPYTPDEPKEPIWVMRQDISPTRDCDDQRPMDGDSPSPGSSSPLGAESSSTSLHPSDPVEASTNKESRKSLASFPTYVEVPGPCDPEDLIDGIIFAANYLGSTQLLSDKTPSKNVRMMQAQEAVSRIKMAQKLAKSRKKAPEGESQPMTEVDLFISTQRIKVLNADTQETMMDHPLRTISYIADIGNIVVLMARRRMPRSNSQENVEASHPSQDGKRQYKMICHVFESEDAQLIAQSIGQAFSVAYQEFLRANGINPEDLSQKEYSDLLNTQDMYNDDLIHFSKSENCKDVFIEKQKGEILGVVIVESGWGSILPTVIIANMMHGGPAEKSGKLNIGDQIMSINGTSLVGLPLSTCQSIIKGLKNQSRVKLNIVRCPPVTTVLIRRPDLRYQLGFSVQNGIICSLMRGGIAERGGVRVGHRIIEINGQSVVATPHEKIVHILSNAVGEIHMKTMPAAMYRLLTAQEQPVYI

SUMO-activating enzyme [9] = target: T2, SUMO-activating enzyme; test: blockers of UBC9-mediated SUMO conjugation – biochemical, AlphaScreen, SUMOylation inhibitor project, confirmation (AID 2018); type: functional
[10] = target: T3, Voltage-gated N-type calcium channel alpha-1B subunit/Amyloid beta A4 precursor protein-binding family A member 1; type: protein assay; remark: listed apart in the source
Hexokinase HKDC1 = target: T4, Hexokinase HKDC1 (Homo sapiens, UniProt Q2TB90); test: activation of HKDC1 glucose phosphorylation – biochemical, W721R variant, dose response (AID 504730); type: functional
T4 sequence (Q2TB90 whole entry): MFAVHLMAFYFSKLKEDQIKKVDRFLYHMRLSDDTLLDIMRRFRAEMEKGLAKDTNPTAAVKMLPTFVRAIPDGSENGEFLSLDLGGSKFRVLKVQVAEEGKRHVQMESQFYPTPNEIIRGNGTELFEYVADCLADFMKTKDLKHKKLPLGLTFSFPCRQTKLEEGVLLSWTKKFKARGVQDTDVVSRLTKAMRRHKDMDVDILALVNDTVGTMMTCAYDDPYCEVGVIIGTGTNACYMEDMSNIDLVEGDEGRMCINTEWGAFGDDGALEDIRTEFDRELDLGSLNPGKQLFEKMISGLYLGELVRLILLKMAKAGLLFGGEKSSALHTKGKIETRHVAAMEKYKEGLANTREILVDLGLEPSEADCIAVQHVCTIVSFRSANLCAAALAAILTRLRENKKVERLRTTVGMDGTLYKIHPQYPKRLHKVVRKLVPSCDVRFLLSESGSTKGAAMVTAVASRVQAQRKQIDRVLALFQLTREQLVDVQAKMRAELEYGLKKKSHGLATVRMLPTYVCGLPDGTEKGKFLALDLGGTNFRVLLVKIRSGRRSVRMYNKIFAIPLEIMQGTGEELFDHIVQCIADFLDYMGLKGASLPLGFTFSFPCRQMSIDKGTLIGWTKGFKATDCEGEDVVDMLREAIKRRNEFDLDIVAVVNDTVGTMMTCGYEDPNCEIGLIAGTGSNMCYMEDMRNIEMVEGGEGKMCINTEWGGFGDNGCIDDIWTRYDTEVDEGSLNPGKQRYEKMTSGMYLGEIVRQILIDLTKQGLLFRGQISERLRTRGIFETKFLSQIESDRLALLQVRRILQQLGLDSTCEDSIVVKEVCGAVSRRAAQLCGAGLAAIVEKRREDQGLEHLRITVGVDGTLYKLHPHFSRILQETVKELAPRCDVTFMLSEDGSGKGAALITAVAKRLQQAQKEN

Ion channel NompC = Ion channel NompC (Danio rerio, UniProt Q7T1G6); test: Dose response cell-based high-throughput screening assay for agonists of the transient receptor potential channel N1 (TRPN1). [Related pubchem assays (depositor defined):AID1424, AID1448]; type: functional
Mucolipin-3 = target: T5, Mucolipin-3 (Homo sapiens, UniProt Q8TDD5); test: Fluorescence counterscreen assay for […] agonists: dose response cell-based high-throughput screening assay to identify agonists of the transient receptor potential channel ML3 (TRPML3). [Related pubchem assays: 1424, 1448 ]; type: functional
T5 sequence (Q8TDD5 whole entry): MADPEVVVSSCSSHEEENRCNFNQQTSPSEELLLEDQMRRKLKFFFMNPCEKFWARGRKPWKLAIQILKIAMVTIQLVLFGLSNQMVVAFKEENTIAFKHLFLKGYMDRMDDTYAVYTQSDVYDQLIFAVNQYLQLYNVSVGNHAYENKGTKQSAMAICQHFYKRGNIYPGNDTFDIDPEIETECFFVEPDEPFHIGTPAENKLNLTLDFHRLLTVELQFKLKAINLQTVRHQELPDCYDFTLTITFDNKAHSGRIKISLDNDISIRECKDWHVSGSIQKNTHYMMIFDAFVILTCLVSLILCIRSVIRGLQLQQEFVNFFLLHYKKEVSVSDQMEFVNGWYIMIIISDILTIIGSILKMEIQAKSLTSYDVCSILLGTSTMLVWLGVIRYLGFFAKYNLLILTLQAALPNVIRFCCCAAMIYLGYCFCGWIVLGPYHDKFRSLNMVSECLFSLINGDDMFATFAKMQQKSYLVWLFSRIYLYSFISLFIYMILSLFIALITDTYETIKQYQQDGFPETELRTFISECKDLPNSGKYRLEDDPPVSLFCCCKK

COc1ccc(-c2cc(N)n(S(=O)(=O)c3ccc(Cl)cc3)n2)cc1OC
IC50 (Bcl-2-related protein A1 [1]): > 100 µM (not active)
IC50 (Bcl-2-related protein A1 [2]): > 100 µM (not active)
IC50 (HEK293): > 20 µM (inactive)
IC50 [3]: > 20 µM (inactive)
IC50 [4]: > 20 µM (inactive)
IC50 [5]: > 100 µM (not active)
IC50 (Tumor necrosis factor): > 20 µM (inactive)

CC(=O)N(C)c1ccc(NC(=O)/C=C/c2ccccc2Cl)cc1
AC50 (CAAX prenyl protease 2): 2.06 µM (active)
AC50 [6]: > 350 µM (inactive)

CCOc1ccc(/C=C2/SC(=S)N(CCC(=O)Nc3ccc(C(=O)O)cc3)C2=O)cc1
IC50 (SUMO-activating enzyme [7]): 23.6 µM (active)
IC50 [8]: > 50 µM (inactive)
IC50 (SUMO-activating enzyme [9]): 16.8 µM (active)
IC50 [10]: 5.5 µM (active)
EC50 (Hexokinase HKDC1): > 80 µM (inactive)

CCOC(=O)Cn1c(=O)oc2cc(S(=O)(=O)Nc3ccc(F)cc3)ccc21
EC50 (Ion channel NompC): > 29.9 µM (inactive)
EC50 (Mucolipin-3): > 29.9 µM (not active)
